Assay results from patent US20040170580A1, “Filtering suntan product” (priority 2001, published 2004).

Tested on: normal human keratinocyte/melanocyte cocultures
Test: UV-induced melanogenesis by 14C-thiouracil incorporation related to amount of protein
Type: cell-based
Method: The protoprotective and propigmenting effect of the combination was tested on normal human keratinocyte/melanocyte cocultures according to the method described in patent FR 95/06491, by evaluating the UV-induced melanogenesis. The rate of melanin synthesis is evaluated through the incorporation of C^14-labeled thiouracil. It is related to the amount of protein.
Normal human keratinocytes (NHKs) and normal human melanocytes (NHMs) are cultured from foreskin. The two types of cell are amplified and stored frozen. Eight days before the test, each of the cell types is again placed in culture. The keratinocytes are cultured according to the method described by Rheinwald and Green (Cell (1975) 6, 331-334) on feeder cells (3T3 fibroblasts) in Green 7F growth medium (DMEM/F12, 3:1, 10% fetal calf serum (Gibco), 0.18 mM adenine, 10 ng/ml epidermal growth factor EGF, 0.4 μg/ml hydrocortisone, 5 μg/ml insulin, 10 μM isoproterenol, 5 μg/ml transferrin and 2 nM triiodothyronine). The melanocytes are amplified in M2 medium (Olsson, M. J. et al., Lancet (1992) 340, 981). The media are changed every two days.
3 days before the test, 250 000 normal human keratinocytes and 80 000 normal human melanocytes are mixed and seeded per well of 24-well plates (Costar type) and cultured for three days in the keratinocyte growth medium (Green 7F) without phenol red. During the following four days, the culture medium is replaced daily with UV medium (DMEM/F12, 3:1, without phenol red, 2% defined calf serum (HyClone), 10 ng/ml EGF, 10 ng/ml fibroblast growth factor type β (βFGF)).
The UV-induction of pigmentation is carried out by solar simulated radiation (SSR) using a 1 000 watt Oriel Xenon solar simulator comprising a 280-400 nm dichroic filter (Oriel, model 81035) and a Schott WG 320 filter having a wavelength cut-off of 311 nm (corresponding to a thickness of approximately 1.5 mm).
The cell cultures are irradiated once a day for 4 days in a phosphate buffer solution (PBS).
The propigmenting molecules are brought into contact with the cells in the PBS during the irradiation and added to the culture medium (UV medium) after irradiation.
The extract of Burnet is tested at 0.005%. It is prepared in a stock solution at 0.5% in a solvent (dimethyl sulfoxide, DMSO), which is added at a 1/1 000 dilution to the PBS and to the UV medium. The final concentration of the solvent in the culture medium is therefore 1/1 000.
The extract of Chrysanthemum sinensis obtained according to protocol Nos. 2+4 is tested at 1%.
The tyrosine, which serves as a positive control, is tested at 500 μM.
The Mexoryl SX® is tested at 8%.
After each exposure to UV radiation, the formulations containing the sunscreen are applied, in the proportion of 1.4 mg/cm^2, to a quartz slide on which there is a Transpore® strip, according to a method derived from that used to determine sun protection indices in vitro, described by Diffey and Robson (J Soc Cosmet Chemists (1989) 300, 230-235). The assembly is placed above the cocultures for the duration of the irradiation.
After irradiation, the cells are incubated in the UV medium containing 1 μCi/ml of C^14-labeled thiouracil.
Measurement of Melanogenesis:
The following controls are realized:
control culture: no product tested […]
24 hours after the final UV irradiation, the cells are rinsed in phosphate buffer. The proteins are precipitated with 5% trichloroacetic acid (TCA) and washed in order to remove the free radioactivity. […]

Row | Structure (SMILES) | % variation in melanin synthesis compared to the control; A = 14CthioU/amount protein (%/control) (SSR irradiation + solvent (DMSO 1/1000), 8% Mexoryl SX formulation on quartz slide above the cocultures, no propigmenting agent) [%] | % variation in melanin synthesis compared to the control; A = 14CthioU/amount protein (%/control) (SSR irradiation once a day for 4 days, 8% Mexoryl SX formulation 1.4 mg/cm2 on quartz slide above the cocultures, no propigmenting agent, no solvent) [%] | % variation in melanin synthesis compared to the control; A = 14CthioU/amount protein (%/control) (SSR irradiation once a day for 4 days, no screening agent, tyrosine 500 μM, extract of Burnet 0.005% (DMSO solvent), extract of Chrysanthemum sinensis 1%) [%] | % variation in melanin synthesis compared to the control; A = 14CthioU/amount protein (%/control) (SSR irradiation screened by 8% Mexoryl SX formulation, in combination with propigmenting agent: tyrosine 500 μM, extract of Burnet 0.005% (DMSO solvent), extract of Chrysanthemum sinensis 1%) [%] | % variation in melanin synthesis compared to the control; A = 14CthioU/amount protein (%/control) (no irradiation, propigmenting agent alone: tyrosine 500 μM, extract of Burnet 0.005% (DMSO solvent 1/1000), extract of Chrysanthemum sinensis 1%) [%]
1 | CC1(C)C2CCC1(CS(=O)(=O)O)C(=O)C2=Cc1ccc(C=C2C(=O)C3(CS(=O)(=O)O)CCC2C3(C)C)cc1 [Mexoryl SX ®] | 36 | 15 | – | – | –
2 | N[C@@H](Cc1ccc(O)cc1)C(=O)O [tyrosine] | – | – | 382 | 74 | 40
